The source of these data is patent US9067894B1, “Compound, composition, and method of activating GIRK potassium channel and use of same for treating conditions of interest” (Vanderbilt University, priority 2013, dated 2015).

The inhibition is the percentage by which the read-out fell short of the control. Low readings indicate a weak effect, high ones a strong effect.

One assay has as its target T1, GIRK2/3 (Homo sapiens, UniProt P48051+Q92806).
T1 construct: expressed in transfected cells; host or cells: HEK-293
T1 sequence (P48051 1-423): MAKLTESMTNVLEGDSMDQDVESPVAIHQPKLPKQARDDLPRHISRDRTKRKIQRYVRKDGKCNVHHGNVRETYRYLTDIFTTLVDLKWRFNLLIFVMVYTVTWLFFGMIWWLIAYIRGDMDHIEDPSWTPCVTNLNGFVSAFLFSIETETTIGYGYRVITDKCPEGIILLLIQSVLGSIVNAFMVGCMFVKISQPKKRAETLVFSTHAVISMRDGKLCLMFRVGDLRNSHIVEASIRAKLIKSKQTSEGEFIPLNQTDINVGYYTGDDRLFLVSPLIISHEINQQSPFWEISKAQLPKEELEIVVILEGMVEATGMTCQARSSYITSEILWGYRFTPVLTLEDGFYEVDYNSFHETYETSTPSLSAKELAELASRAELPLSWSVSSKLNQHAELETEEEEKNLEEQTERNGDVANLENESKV
T1 sequence (Q92806 1-393): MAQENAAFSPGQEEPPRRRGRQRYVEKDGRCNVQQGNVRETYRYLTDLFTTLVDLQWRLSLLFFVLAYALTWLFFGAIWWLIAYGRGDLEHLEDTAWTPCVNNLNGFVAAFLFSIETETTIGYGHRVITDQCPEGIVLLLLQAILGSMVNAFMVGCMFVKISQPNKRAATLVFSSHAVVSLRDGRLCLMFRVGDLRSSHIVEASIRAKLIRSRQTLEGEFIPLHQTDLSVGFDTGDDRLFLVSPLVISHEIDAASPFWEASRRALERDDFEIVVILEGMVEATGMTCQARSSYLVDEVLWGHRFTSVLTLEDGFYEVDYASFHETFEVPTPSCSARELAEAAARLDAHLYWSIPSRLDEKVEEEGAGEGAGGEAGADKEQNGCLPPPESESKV
The experiment in a line: Thallium flux assay, HEK-293 cells expressing GIRK2/3. The class given is cell-based. The note with it: cell line GIRK2-3. The text has this: (§1) Cell Line Construction and Cell Culture. HEK-293 cells co-expressing human GIRK1/2 and rat mGlu8 were generated as previously described (Niswender et al., 2008). A HEK-293 cell line (ATCC, Manassas, Va.) expressing human GIRK1 and human GIRK2 was constructed by transfecting HEK-293 cells with GIRK1 and GIRK2 (Origene, Rockville, Md.) cloned into the pBudCE4.1 vector (Life Technologies, Carlsbad, Calif.) using FuGene 6 (Promega, Madison, Wis.) transfection reagent. Unless otherwise noted, other ion channel-expressing cells were prepared by transfecting HEK-293 cells with individual or combinations of subunits: GIRK1, pCMV6-A-BSD; GIRK2, pCMV6-A-puro; GIRK3, pCMV6-A-hygro; GIRK4, pCMV6-A-AC; Kv7.4, pIRESneo3. The Kir2.1 and hERG-expressing cell lines were made by transfecting T-REx-293 cells (Life Technologies, Carlsbad, Calif.) with Kir2.1 and Kv11.1, respectively, cloned into pcDNA5TO. Monoclonal cell lines were produced by limiting-dilution cloning of antibiotic-resistant cells and functional selection using the thallium flux assay described below. Unless otherwise noted, cells were maintained in Minimal Essential Medium, Alpha Medium (Mediatech, Manassas, Va.) supplemented with 10% fetal bovine serum (Sigma-Aldrich, Saint Louis, Mo.) and GlutaGro (Mediatech, Manassas, Va.), referred to henceforth as cell culture medium. […]

The target of a further assay is T2, Kir2.1 (Homo sapiens, UniProt P63252).
T2 construct: expressed in transfected cells; host or cells: T-REx-293
T2 sequence (P63252 whole entry): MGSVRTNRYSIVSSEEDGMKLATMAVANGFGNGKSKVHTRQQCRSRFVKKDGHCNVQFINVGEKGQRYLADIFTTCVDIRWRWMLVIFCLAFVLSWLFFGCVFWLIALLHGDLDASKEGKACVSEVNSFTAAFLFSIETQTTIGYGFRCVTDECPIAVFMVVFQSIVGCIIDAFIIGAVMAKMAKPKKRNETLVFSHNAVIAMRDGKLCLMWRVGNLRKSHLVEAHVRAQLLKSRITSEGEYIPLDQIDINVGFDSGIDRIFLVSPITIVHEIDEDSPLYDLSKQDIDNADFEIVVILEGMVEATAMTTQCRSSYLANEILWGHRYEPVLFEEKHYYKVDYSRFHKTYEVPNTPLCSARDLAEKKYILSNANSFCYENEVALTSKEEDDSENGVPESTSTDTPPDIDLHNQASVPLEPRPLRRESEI
The assay is described as follows: Thallium flux assay, Kir2.1-expressing cells. The class given is cell-based.
Description: as §1

In the next assay the target is T3, Adrenergic α1A (Rattus norvegicus, UniProt P43140).
T3 construct: Ricerca (contract assay)
T3 sequence (P43140 whole entry): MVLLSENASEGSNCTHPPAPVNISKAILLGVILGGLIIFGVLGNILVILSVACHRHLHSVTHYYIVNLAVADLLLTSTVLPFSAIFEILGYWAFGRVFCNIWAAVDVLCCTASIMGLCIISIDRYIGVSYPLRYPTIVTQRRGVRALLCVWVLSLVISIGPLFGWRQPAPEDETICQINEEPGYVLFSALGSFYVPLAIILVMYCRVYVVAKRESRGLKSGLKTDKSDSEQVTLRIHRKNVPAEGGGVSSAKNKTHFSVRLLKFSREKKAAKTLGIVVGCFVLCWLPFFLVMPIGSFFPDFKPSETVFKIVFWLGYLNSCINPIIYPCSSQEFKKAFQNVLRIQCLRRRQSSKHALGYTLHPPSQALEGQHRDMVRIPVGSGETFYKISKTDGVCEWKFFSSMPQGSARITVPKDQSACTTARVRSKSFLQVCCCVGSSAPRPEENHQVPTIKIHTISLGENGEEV
The assay is described as follows: Radioligand displacement (Ricerca). Type of assay: binding. In general terms: Displacement assays read how much labelled ligand stays bound in the presence of the test substance.

A further assay concerns the target T4, Adrenergic β1 (Homo sapiens, UniProt P08588).
T4 construct: Ricerca (contract assay)
The experiment in a line: Radioligand displacement (Ricerca). The class given is binding.

The target of a further assay is T5, Interleukin IL-1 (Mus musculus, UniProt P13504).
T5 construct: Ricerca (contract laboratory that ran the panel)
T5 sequence (P13504 20-576): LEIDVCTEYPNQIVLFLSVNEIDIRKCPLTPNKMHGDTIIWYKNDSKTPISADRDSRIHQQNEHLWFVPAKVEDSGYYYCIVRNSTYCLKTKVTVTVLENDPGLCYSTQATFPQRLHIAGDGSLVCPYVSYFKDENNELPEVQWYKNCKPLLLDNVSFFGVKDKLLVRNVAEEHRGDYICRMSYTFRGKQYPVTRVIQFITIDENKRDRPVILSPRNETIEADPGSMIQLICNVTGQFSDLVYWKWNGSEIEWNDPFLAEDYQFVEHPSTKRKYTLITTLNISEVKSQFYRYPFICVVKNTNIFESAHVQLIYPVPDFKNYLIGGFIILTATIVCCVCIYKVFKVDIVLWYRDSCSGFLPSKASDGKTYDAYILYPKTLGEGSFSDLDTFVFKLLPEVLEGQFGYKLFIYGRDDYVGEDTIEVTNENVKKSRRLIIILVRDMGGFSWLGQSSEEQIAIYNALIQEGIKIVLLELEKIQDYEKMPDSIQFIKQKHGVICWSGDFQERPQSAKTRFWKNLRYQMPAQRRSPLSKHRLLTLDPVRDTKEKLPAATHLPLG
The assay is described as follows: Radioligand displacement (Ricerca). The class given is binding.

Structures are written as SMILES. Entries after “also recorded” stand apart in the source; their conditions may differ.

T4 sequence (P08588 whole entry): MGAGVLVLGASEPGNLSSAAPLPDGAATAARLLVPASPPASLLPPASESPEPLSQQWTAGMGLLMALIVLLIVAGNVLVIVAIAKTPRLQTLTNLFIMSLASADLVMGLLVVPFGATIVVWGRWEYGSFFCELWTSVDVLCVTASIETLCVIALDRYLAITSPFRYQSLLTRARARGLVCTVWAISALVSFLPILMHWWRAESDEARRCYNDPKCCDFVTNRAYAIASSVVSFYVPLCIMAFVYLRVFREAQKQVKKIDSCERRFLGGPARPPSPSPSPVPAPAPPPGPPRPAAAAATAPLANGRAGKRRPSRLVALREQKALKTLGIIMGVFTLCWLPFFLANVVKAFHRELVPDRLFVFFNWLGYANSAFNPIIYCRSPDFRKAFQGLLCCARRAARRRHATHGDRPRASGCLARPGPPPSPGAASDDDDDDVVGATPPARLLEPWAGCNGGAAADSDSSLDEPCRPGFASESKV

Regarding `Cc1cc(NC(=O)Nc2ccc(F)c(F)c2)n(-c2ccccc2)n1` [VU0456810, 1-(3,4-difluorophenyl)-3-(3-methyl-1-phenyl-1H-pyrazol-5-yl)urea], the “EC50 Thallium Flux” value on GIRK2/3 is “complete lack of efficacy; also recorded: Inactive”; at GIRK2/3 (listed as 2), “inactive”. Further, the Potency entry on Kir2.1 is given as “Inactive”. In addition, the inhibition at 10 µM is 4% at Adrenergic α1A, 0% on Adrenergic β1 and 2% on Interleukin IL-1.
